Patent US20020173538A1, “Method for sensitizing cancer cells to cancer therapies with a mevalonate-reducing compound” (priority 2000, published 2002)
Read-outs that look alike come from different tables or passages of the source. Marks after values point to notes of the source that are not given here.

What was measured:
Hep 3B/T2 cells [1] = test: Tumor growth of Hep 3B/T2 cells in nude mice; format: in vivo, BALB/c-nu/nu nude mice
Description: The descriptive statistics were summarized as mean±STD. For statistical analysis, Student's t-test was used to determine significance of mean differences between groups.

Hep 3B/T2 cells [2] = test: Tumor growth of Hep 3B/T2 cells in nude mice; format: in vivo, BALB/c-nu/nu nude mice; conditions: for Tumor size: LOV 75 mg/kg/day p.o. days 8-14 and/or taxol 120 μg/kg/day i.p. days 15-19, n = 3
Hep 3B cells = test: MTT cell viability assay, Hep 3B cells (serum-free DMEM); conditions: for viability at 0.002 µM / viability at 0.005 µM / viability at 0.01 µM / viability at 0.02 µM / viability at 0.05 µM / viability at 0.1 µM / viability at 0.2 µM / viability at 0.5 µM / viability at 1 µM / IC50: Homo sapiens, Hep3B
Description: Human hepatoma cell lines Hep G2 and Hep 3 were chosen as the in vitro models of hepatocytes and hepatoma, respectively.

[3] = Cycle 1 (Day 42), LOV 37.5 mg/kg/day p.o. days 28-34 and 49-55 and/or taxol 120 μg/kg/2 day i.p. day 36, 38, 40, 57, 59, 61
[4] = Cycle 2 (Day 63), LOV 37.5 mg/kg/day p.o. days 28-34 and 49-55 and/or taxol 120 μg/kg/2 day i.p. day 36, 38, 40, 57, 59, 61
[5] = no lovastatin 48 hr, then taxol 10 nM 48 hr
[6] = no lovastatin 72 hr, then taxol 2 nM 72 hr
[7] = no lovastatin 72 hr, then taxol 5 nM 48 hr
[8] = no lovastatin 72 hr, then taxol 5 nM 72 hr

Compound: CC(=O)O[C@H]1C(=O)[C@@]2(C)[C@H]([C@H](OC(=O)c3ccccc3)[C@]3(O)C[C@H](OC(=O)[C@H](O)[C@@H](NC(=O)c4ccccc4)c4ccccc4)C(C)=C1C3(C)C)[C@]1(OC(C)=O)CO[C@@H]1C[C@@H]2O [Taxol, paclitaxel]
- Tumor size (Hep 3B/T2 cells [1]; [3]): 0.465 cm^3
- Tumor size (Hep 3B/T2 cells [1]; [4]): 1.424 cm^3
- percentage of inhibition of tumor size (Hep 3B/T2 cells [1]; [4]): (−43.1%
- Tumor size (Hep 3B/T2 cells [1]; Day 15, LOV 75 mg/kg/day p.o. days 8-14 and/or taxol 120 μg/kg/day i.p. days 15-19, n = 3): 0.125 cm^3
- Tumor size (Hep 3B/T2 cells [1]; Day 20, LOV 75 mg/kg/day p.o. days 8-14 and/or taxol 120 μg/kg/day i.p. days 15-19, n = 3): 0.047 cm^3
- Tumor size (Hep 3B/T2 cells [1]; Day 23, LOV 75 mg/kg/day p.o. days 8-14 and/or taxol 120 μg/kg/day i.p. days 15-19, n = 3): 0.037 cm^3
- Tumor size (1 × w^2 × 0.52 cm^3) Day 28 (Hep 3B/T2 cells [1]; Day 28 after inoculation of 1 × 10^7 Hep 3B/T2 cells in male BALB/c-nu/nu nude mice, p.o. lovastatin 37.5 mg/kg/day (days 28-34, 49-55) and/or i.p. taxol 120 μg/kg/2 day (days 36, 38, 40, 57, 59, 61), mean ± SEM): 0.170 cm^3
- Tumor size (Hep 3B/T2 cells [1]; after two cycles: lovastatin fed 7 days, then paclitaxel injected 3 days (FIG. 38), mean±STD): 1.43±0.46 cm^3
- percentage of inhibition of tumor size (Hep 3B/T2 cells [2]; [3]): (−54.2%
- Tumor size (Hep 3B/T2 cells [2]; Day 8): 0.111 cm^3
- Tumor size (Hep 3B/T2 cells [2]; Day 11): 0.125 cm^3
- Tumor size (Hep 3B/T2 cells [2]; Day 17): 0.063 cm^3
- Tumor size (Hep 3B/T2 cells [2]; Day 26): 0.064 cm^3
- Tumor size (Hep 3B/T2 cells [2]; Day 29): 0.137 cm^3
- Tumor size (1 × w^2 × 0.52 cm^3) Day 35 (Hep 3B/T2 cells [2]; Day 35 after inoculation, p.o. lovastatin 37.5 mg/kg/day (days 28-34, 49-55) and/or i.p. taxol 120 μg/kg/2 day (days 36, 38, 40, 57, 59, 61), mean ± SEM): 0.400 cm^3
- Tumor size (1 × w^2 × 0.52 cm^3) Day 38 (Hep 3B/T2 cells [2]; Day 38 after inoculation, p.o. lovastatin 37.5 mg/kg/day (days 28-34, 49-55) and/or i.p. taxol 120 μg/kg/2 day (days 36, 38, 40, 57, 59, 61), mean ± SEM): 0.415 cm^3
- Tumor size (1 × w^2 × 0.52 cm^3) Day 42 (Hep 3B/T2 cells [2]; Day 42 after inoculation, p.o. lovastatin 37.5 mg/kg/day (days 28-34, 49-55) and/or i.p. taxol 120 μg/kg/2 day (days 36, 38, 40, 57, 59, 61), mean ± SEM): 0.465 cm^3
- Tumor size (1 × w^2 × 0.52 cm^3) Day 49 (Hep 3B/T2 cells [2]; Day 49 after inoculation, p.o. lovastatin 37.5 mg/kg/day (days 28-34, 49-55) and/or i.p. taxol 120 μg/kg/2 day (days 36, 38, 40, 57, 59, 61), mean ± SEM): 0.811 cm^3
- Tumor size (1 × w^2 × 0.52 cm^3) Day 56 (Hep 3B/T2 cells [2]; Day 56 after inoculation, p.o. lovastatin 37.5 mg/kg/day (days 28-34, 49-55) and/or i.p. taxol 120 μg/kg/2 day (days 36, 38, 40, 57, 59, 61), mean ± SEM): 0.996 cm^3
- Tumor size (1 × w^2 × 0.52 cm^3) Day 63 (Hep 3B/T2 cells [2]; Day 63 after inoculation, p.o. lovastatin 37.5 mg/kg/day (days 28-34, 49-55) and/or i.p. taxol 120 μg/kg/2 day (days 36, 38, 40, 57, 59, 61), mean ± SEM): 1.424 cm^3
- viability at 0.002 µM (Hep 3B cells; 48 h, read-out: Cell viability, taxol 2 nM, 48 hr): 93.1 ± 1.3%
- viability at 0.002 µM (Hep 3B cells; 48 h, read-out: Cell viability, taxol 2 nM, 48 hr, Table 9): 97 ± 1.5%
- viability at 0.005 µM (Hep 3B cells; 48 h, read-out: Cell viability, taxol 5 nM, 48 hr): 91.6 ± 0.5%
- viability at 0.005 µM (Hep 3B cells; 48 h, read-out: Cell viability, taxol 5 nM, 48 hr, Table 9): 97.5 ± 3.1%
- viability at 0.01 µM (Hep 3B cells; 48 h, read-out: Cell viability, taxol 10 nM, 48 hr): 87.1 ± 1.5%
- viability at 0.01 µM (Hep 3B cells; 48 h, read-out: Cell viability, taxol 10 nM, 48 hr, Table 9): 89.1 ± 3%
- viability at 0.02 µM (Hep 3B cells; 48 h, read-out: Cell viability, taxol 20 nM, 48 hr): 85.4 ± 0.9%
- viability at 0.05 µM (Hep 3B cells; 48 h, read-out: Cell viability, taxol 50 nM, 48 hr): 83.5 ± 0.9%
- viability at 0.1 µM (Hep 3B cells; 48 h, read-out: Cell viability, taxol 100 nM, 48 hr): 74.9 ± 1.8%
- viability at 0.2 µM (Hep 3B cells; 48 h, read-out: Cell viability, taxol 200 nM, 48 hr): 64.7 ± 4.6%
- viability at 0.5 µM (Hep 3B cells; 48 h, read-out: Cell viability, taxol 500 nM, 48 hr): 56.2 ± 0.8%
- viability at 1 µM (Hep 3B cells; 48 h, read-out: Cell viability, taxol 1000 nM, 48 hr): 55.3 ± 0.5%
- IC50 (Hep 3B cells; 48 h, read-out: IC50 (cell viability), 48 hr, Table 8): 1119 ± 10.1 nM
- IC50 (Hep 3B cells; 48 h, read-out: IC50 (cell viability), 48 hr, Table 9): 45.9 nM
- viability at 0.002 µM (Hep 3B cells; 72 h, read-out: Cell viability, taxol 2 nM, 72 hr): 94 ± 3.6%
- viability at 0.002 µM (Hep 3B cells; 72 h, read-out: Cell viability, taxol 2 nM, 72 hr, Table 9): 94 ± 3.6%
- viability at 0.005 µM (Hep 3B cells; 72 h, read-out: Cell viability, taxol 5 nM, 72 hr): 91.7 ± 3.7%
- viability at 0.005 µM (Hep 3B cells; 72 h, read-out: Cell viability, taxol 5 nM, 72 hr, Table 9): 91.7 ± 3.7%
- viability at 0.01 µM (Hep 3B cells; 72 h, read-out: Cell viability, taxol 10 nM, 72 hr): 88.5 ± 2.4%
- viability at 0.01 µM (Hep 3B cells; 72 h, read-out: Cell viability, taxol 10 nM, 72 hr, Table 9): 88.5 ± 2.4%
- viability at 0.02 µM (Hep 3B cells; 72 h, read-out: Cell viability, taxol 20 nM, 72 hr): 85.6 ± 1.1%
- viability at 0.05 µM (Hep 3B cells; 72 h, read-out: Cell viability, taxol 50 nM, 72 hr): 71.2 ± 4.2%
- viability at 0.1 µM (Hep 3B cells; 72 h, read-out: Cell viability, taxol 100 nM, 72 hr): 52.7 ± 2.8%
- viability at 0.2 µM (Hep 3B cells; 72 h, read-out: Cell viability, taxol 200 nM, 72 hr): 47 ± 1%
- viability at 0.5 µM (Hep 3B cells; 72 h, read-out: Cell viability, taxol 500 nM, 72 hr): 32.2 ± 4.7%
- viability at 1 µM (Hep 3B cells; 72 h, read-out: Cell viability, taxol 1000 nM, 72 hr): 24.6 ± 2.9%
- IC50 (Hep 3B cells; 72 h, read-out: IC50 (cell viability), 72 hr, Table 8): 147 ± 14.2 nM
- IC50 (Hep 3B cells; 72 h, read-out: IC50 (cell viability), 72 hr, Table 9): 43.5 nM
- viability at 0.002 µM (Hep 3B cells; 96 h, read-out: Cell viability, taxol 2 nM alone, 96 hr, Table 10): 92.6 ± 1.9%
- viability at 0.002 µM (Hep 3B cells; 96 h, read-out: Cell viability, taxol 2 nM, 96 hr): 94.1 ± 7.9%
- viability at 0.005 µM (Hep 3B cells; 96 h, read-out: Cell viability, taxol 5 nM alone, 96 hr, Table 10): 79.5 ± 4.6%
- viability at 0.005 µM (Hep 3B cells; 96 h, read-out: Cell viability, taxol 5 nM, 96 hr): 92.4 ± 4.8%
- viability at 0.01 µM (Hep 3B cells; 96 h, read-out: Cell viability, taxol 10 nM alone, 96 hr, Table 10): 60.3 ± 3.4%
- viability at 0.01 µM (Hep 3B cells; 96 h, read-out: Cell viability, taxol 10 nM, 96 hr): 82.3 ± 6.6%
- IC50 (Hep 3B cells; 96 h, read-out: IC50 (cell viability), 96 hr): 28.2 nM
- viability at 0.002 µM (Hep 3B cells; 120 h, read-out: Cell viability, taxol 2 nM, 120 hr): 94.2 ± 2.5%
- viability at 0.005 µM (Hep 3B cells; 120 h, read-out: Cell viability, taxol 5 nM, 120 hr): 82.7 ± 3.7%
- viability at 0.01 µM (Hep 3B cells; 120 h, read-out: Cell viability, taxol 10 nM, 120 hr): 71.9 ± 4.6%
- IC50 (Hep 3B cells; 120 h, read-out: IC50 (cell viability), 120 hr): 17.8 nM
- Cell viability (Hep 3B cells; no lovastatin 48 hr, then taxol 2 nM 48 hr): 102.4 ± 4.7^a % of control
- Ratio, inhibition (%) Hep 3B/inhibition (%) Hep G2 (Hep 3B cells; no lovastatin 48 hr, then taxol 5 nM 48 hr): 0.3***
- Cell viability (Hep 3B cells; [5]): 76.3 ± 1.3^c % of control
- Ratio, inhibition (%) Hep 3B/inhibition (%) Hep G2 (Hep 3B cells; [5]): 0.6***
- Ratio, inhibition (%) Hep 3B/inhibition (%) Hep G2 (Hep 3B cells; no lovastatin 72 hr, then taxol 2 nM 48 hr): 0.4***
- Cell viability (Hep 3B cells; [6]): 91.1 ± 1.1^b % of control
- Ratio, inhibition (%) Hep 3B/inhibition (%) Hep G2 (Hep 3B cells; [6]): 0.4*
- Cell viability (Hep 3B cells; [7]): 86.9 ± 1.3^b % of control
- Ratio, inhibition (%) Hep 3B/inhibition (%) Hep G2 (Hep 3B cells; [7]): 0.4***
- Cell viability (Hep 3B cells; [8]): 96.5 ± 0.6^a % of control
- Ratio, inhibition (%) Hep 3B/inhibition (%) Hep G2 (Hep 3B cells; [8]): 0.1***
- Ratio, inhibition (%) Hep 3B/inhibition (%) Hep G2 (Hep 3B cells; no lovastatin 72 hr, then taxol 10 nM 48 hr): 0.4**
